# Results: US20050112701A1, “Test system for the identification of APJ receptor ligands” (Aventis Pharma Deutschland GmbH, priority 2003, published 2005)
# Ends that are not written are not given here.
# Key:
# Assay type in all cases: cell-based
# APJ receptor [1] = target: T1, APJ receptor (Homo sapiens, UniProt P35414); experiment: FLIPR calcium assay in CHO cells transiently cotransfected with APJ receptor and G protein α subunits (FIG. 3); design: expressed in transfected cells; host or cells: CHO (Chinese hamster ovary), transient; conditions: 1 μmol/l peptide; CHO cells cotransfected with APJ and α16 or αΔ6qi4myr; response required chimeric/promiscuous Gα subunit
# T1 sequence (P35414 1-380): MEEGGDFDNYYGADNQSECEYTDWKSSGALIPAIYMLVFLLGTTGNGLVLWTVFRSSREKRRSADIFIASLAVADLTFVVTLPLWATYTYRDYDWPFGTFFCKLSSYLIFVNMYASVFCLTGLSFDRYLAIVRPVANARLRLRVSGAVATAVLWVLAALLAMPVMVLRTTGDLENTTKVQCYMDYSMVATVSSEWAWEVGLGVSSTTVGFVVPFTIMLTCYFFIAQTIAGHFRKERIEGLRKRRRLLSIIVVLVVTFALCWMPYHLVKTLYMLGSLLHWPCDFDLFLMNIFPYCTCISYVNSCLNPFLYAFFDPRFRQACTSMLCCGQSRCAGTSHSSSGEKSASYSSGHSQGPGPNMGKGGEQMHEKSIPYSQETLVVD
# From the text: The APJ receptor was transiently cotransfected in CHO cells (Chinese hamster ovary cells) with vector DNA as a control (white column) or the G protein α subunits α16 (black column) and αΔ6qi4myr (striped column) according to methods known to the one skilled in the art. […] Data presented are mean values (fluorescence intensity units, FIU) from 2 individual experiments performed in duplicate.
# (§1) The FLIPR calcium assay provides a suitable method for detecting changes in intracellular calcium concentration. It is a fluorescence-based assay which was performed according to the manufacture's instructions (Molecular Devices, CA, USA). Briefly summarized, cells were seeded on 96- or 384-well plates Loading Buffer was added to the cells and plates incubated for 1 hour at 37° C. After incubation cells were stimulated with the prevailing APJ receptor ligand or none. Thereafter intracellular calcium concentration was measured in the FLIPR according to the FLIPR system manual.
# APJ receptor [2] = target: T1, APJ receptor; experiment: FLIPR calcium assay in stably transfected HEK 293 cells overexpressing G protein and APJ receptor (FIG. 4); design: expressed in transfected cells; host or cells: HEK 293; conditions: 50 nmol/l, 200 nmol/l, 1 μmol/l; HEK 293 stably cotransfected with G protein and APJ; response required APJ receptor
# Protocol: Data presented are mean values (fluorescence intensity units, FIU) from 2 individual experiments performed in duplicate.
# as §1
# APJ receptor [3] = target: T1, APJ receptor; experiment: FLIPR calcium assay, EC50 of apelin peptides in HEK293-PSCi4qi4-APJ cells; design: expressed in transfected cells; host or cells: HEK293-PSCi4qi4 (HEK 293 stably expressing Gαi4qi4); conditions: intracellular calcium
# Protocol: as §1
Compound,intracellular calcium release via the APJ receptor (APJ receptor [1]),intracellular calcium release via the APJ receptor (APJ receptor [2]),EC50 (APJ receptor [3]; first of two independent measurements) [nM],EC50 (APJ receptor [3]; second of two independent measurements) [nM]
CSCC[C@H](NC(=O)[C@@H]1CCCN1C(=O)CNC(=O)[C@H](CCCCN)NC(=O)[C@H](Cc1c[nH]cn1)NC(=O)[C@H](CO)NC(=O)[C@H](CC(C)C)NC(=O)[C@H](CCCNC(=N)N)NC(=O)[C@@H]1CCCN1C(=O)[C@@H](N)CCCNC(=N)N)C(=O)N1CCC[C@H]1C(=O)N[C@@H](Cc1ccccc1)C(=O)O [Apelin-12],induced intracellular calcium release,–,–,–
LVQPRGSRNGPGPWQGGRRKFRRQRPRLSHKGPMPF [Apelin-36],induced intracellular calcium release,induced intracellular calcium release via the APJ receptor in a dose-dependent manner,51,27
